The term IC50 denotes the midpoint of a concentration-inhibition curve.

In assay [1] the test system is cancer cells such leukemia and lymphoma, multiple myeloma cells, NUT midline carcinoma and glioblastoma cells. The following applies: literature; cited from earlier work.
Assay [2] relates to MYC promoter / c-myc transcription in MV-4-11 cells. The following applies: literature (Dawson M A et al. 2011); cited from earlier work.
The next assay concerns the target T1, BRD4-BD12 (Homo sapiens, UniProt O60885).
T1 construct: dual bromodomains (BRD4-BD12 (1-477), BRD4-BD12 (1-472)); six-His tag (N); made in house; host or cells: E. coli BL21-CodonPlus (DE3)
As to the kind of experiment: Alphascreen binding assay, BRD4(1 2) H4. The following applies: BRD4 dual bromodomains with acetylated Histone 4 peptide, read-out: Biochemical activity (IC50 μM) BRD4(1 2) H4. In outline: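 N-His-tagged human BRD4 tandem bromodomains (1-477 or 1-472, E. coli-expressed) and biotinylated tetra-acetylated histone H4 1-21 peptide, preincubated 1 h at room temperature with compound in HEPES pH 7.5/NaCl/BSA/Triton/DTT. AlphaScreen nickel-chelate/streptavidin beads added (7.5 μg/mL), read after 30 min. pIC50 from four-parameter fit of control-normalized data.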
For orientation: In Alpha technology, singlet oxygen from a donor bead excites a nearby acceptor bead.

In assay [3] the test system is cancer cell lines / MV-4-11 Myc reporter cell line. The experiment in a line: Bromodomain cell assays of Example 8 (at least one of them). The class given is cell-based. The conditions noted are these: Homo sapiens, MV4-11; at least one of the bromodomain cell assays described in Example 8. In outline: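 Antiproliferation: 3000 cells/well, 8-point 1:3 titration from 10 µM final, 0.2% DMSO, 72 h, CellTiter Glo luminescence. Myc reporter: MV-4-11 with E-box firefly luciferase, 25,000 cells, same titration, 24 h; One-Glo luminescence with CellTiter-Fluo viability; 10 µM JQ1 as low control. pIC50 from four-parameter fit.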

A further assay relates to MV-4-11. As to the kind of experiment: Oncology cell growth assay, MV-4-11 3 d growth. The class given is cell-based. The conditions noted are these: Homo sapiens, MV4-11; MV-4-11 cells, 72 hours, CellTiter Glo; read-out: Cell activity (IC50 μM) MV-4-11 3 d-Growtb. In outline:
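MV-4-11 AML cells (MLL-AF4) seeded 3000/well, then exposed to 8-point 1:3 compound dilutions up to 10 μM final, 0.2% DMSO, for 72 h. Growth read by CellTiter Glo luminescence, normalised to DMSO controls; pIC50 from four-parameter fit.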
Background: ATP-based viability assays read luminescence as a measure of living cells.

As for `COc1cc2c(cc1-c1c(C)noc1C)ncc1[nH]c(=O)n([C@H](C)c3ccccn3)c12` [iBET 151], the “activity in variety of cancer cells” value in assay [1] is listed as “have shown activity”. For the same compound, in assay [2], the “BRD4 recruitment to the MYC promoter” value was “disrupt” and the c-myc transcription entry is “downregulate”.

For the compound `COC(=O)Cc1ccc(-c2nn(C(c3ccccc3)c3ccccn3)c3cc(-c4c(C)noc4C)ccc23)cc1` (stereo not shown) [Compound P-2008, methyl 2-[4-[6-(3,5-dimethylisoxazol-4-yl)-1-[phenyl(2-pyridyl)methyl]indazol-3-yl]phenyl]acetate], the IC50 on BRD4-BD12 was ≤ 1 µM; in assay [3], < 10 µM; with MV-4-11 it was ≤ 1 µM.

For the compound `COC(=O)Cc1ccc(-c2cn([C@@H](C)c3ccccn3)c3nc(-c4c(C)noc4C)cnc23)cc1` [Compound P-2051, methyl 2-[4-[3-(3,5-dimethylisoxazol-4-yl)-5-[(1S)-1-(2-pyridyl)ethyl]pyrrolo[2,3-b]pyrazin-7-yl]phenyl]acetate], the IC50 is ≤ 1 µM on BRD4-BD12, < 10 µM in assay [3] and ≤ 1 µM in the assay with MV-4-11.

Regarding `Cc1noc(C)c1-c1cnc2c(-c3cnn(CC(F)(F)F)c3)nn(CC3CC(F)(F)C3)c2c1` [Compound P-2087, 4-[1-[(3,3-difluorocyclobutyl)methyl]-3-[1-(2,2,2-trifluoroethyl)pyrazol-4-yl]pyrazolo[4,3-b]pyridin-6-yl]-3,5-dimethyl-isoxazole], the IC50 on BRD4-BD12 is ≤ 1 µM; in assay [3] it was < 10 µM; in the assay with MV-4-11, ≤ 1 µM.

Turning to `Cc1noc(C)c1-c1cnc2c(-c3ccc(C4(C(=O)O)CC4)cc3)cn([C@@H](C)c3ccccn3)c2n1` [Compound P-2054, 1-[4-[3-(3,5-dimethylisoxazol-4-yl)-5-[(1S)-1-(2-pyridyl)ethyl]pyrrolo[2,3-b]pyrazin-7-yl]phenyl]cyclopropanecarboxylic acid], the IC50 at BRD4-BD12 was ≤ 1 µM; in assay [3], < 10 µM; with MV-4-11 it was ≤ 1 µM.

As to `COC(=O)Cc1ccc(-c2cn(C(c3ccccc3)c3ccccn3)c3nc(-c4c(C)noc4C)cnc23)cc1` (stereo not shown) [Compound P-2047, methyl 2-[4-[3-(3,5-dimethylisoxazol-4-yl)-5-[phenyl(2-pyridyl)methyl]pyrrolo[2,3-b]pyrazin-7-yl]phenyl]acetate], the results for the IC50 (at BRD4-BD12; in assay [3]; in the assay with MV-4-11) were ≤ 1 µM, < 10 µM and ≤ 1 µM, respectively.

For the compound `Cc1nnn(C)c1-c1cnc2c(-c3cnn(C)c3)nn(CC3CCC(F)(F)CC3)c2c1` [Compound P-2090, 1-[(4,4-difluorocyclohexyl)methyl]-6-(3,5-dimethyltriazol-4-yl)-3-(1-methylpyrazol-4-yl)pyrazolo[4,3-b]pyridine], the IC50 is ≤ 1 µM on BRD4-BD12, < 10 µM in assay [3] and ≤ 1 µM with MV-4-11.

As to `COC(=O)C1(c2ccc(-c3cn([C@@H](C)c4ccccn4)c4nc(-c5c(C)noc5C)cnc34)cc2)CC1` [Compound P-2053, methyl 1-[4-[3-(3,5-dimethylisoxazol-4-yl)-5-[(1S)-1-(2-pyridyl)ethyl]pyrrolo[2,3-b]pyrazin-7-yl]phenyl]cyclopropanecarboxylate], the IC50 on BRD4-BD12 was ≤ 1 µM; in assay [3] it was < 10 µM; in the assay on MV-4-11, ≤ 1 µM.

`Cc1noc(C)c1-c1cnc2c(-c3ccc(C(=O)O)cc3)cn(C(c3ccccc3)c3ccccn3)c2n1` (stereo not shown) [Compound P-2046, 4-[3-(3,5-dimethylisoxazol-4-yl)-5-[phenyl(2-pyridyl)methyl]pyrrolo[2,3-b]pyrazin-7-yl]benzoic acid]: the values for the IC50 (at BRD4-BD12; in assay [3]; with MV-4-11) were ≤ 1 µM, < 10 µM and ≤ 1 µM, respectively.

On to `Cc1noc(C)c1-c1cnc2c(-c3cnn(CC(F)(F)F)c3)nn(CC3(F)CCCCC3)c2c1` [Compound P-2089, 4-[1-[(1-fluorocyclohexyl)methyl]-3-[1-(2,2,2-trifluoroethyl)pyrazol-4-yl]pyrazolo[4,3-b]pyridin-6-yl]-3,5-dimethyl-isoxazole], for which the IC50 on BRD4-BD12 is ≤ 1 µM; in assay [3], < 10 µM; in the assay with MV-4-11, ≤ 1 µM.

On to `[2H]C([2H])(C1CCC(F)(F)CC1)n1ccc2ncc(-c3nn(C(F)F)nc3C)nc21` [Compound P-2042], for which the values for the IC50 (at BRD4-BD12; in assay [3]; with MV-4-11) were 1 to 10 µM, < 10 µM and 10 to 200 µM, respectively.

`COC(=O)Cc1ccc(-c2nn([C@@H](C)c3ccccn3)c3cc(-c4c(C)noc4C)ccc23)cc1` [Compound P-2012, methyl 2-[4-[6-(3,5-dimethylisoxazol-4-yl)-1-[(1S)-1-(2-pyridyl)ethyl]indazol-3-yl]phenyl]acetate]: the IC50 was ≤ 1 µM on BRD4-BD12, < 10 µM in assay [3] and ≤ 1 µM in the assay on MV-4-11.

`[2H]C([2H])(C1CCC(F)(F)CC1)n1nc(-c2cnn(CC(F)(F)F)c2)c2ncc(-c3c(C)noc3C)cc21` [Compound P-2085, 4-[1-[dideuterio-(4,4-difluorocyclohexyl)methyl]-3-[1-(2,2,2-trifluoroethyl)pyrazol-4-yl]pyrazolo[4,3-b]pyridin-6-yl]-3,5-dimethyl-isoxazole]: the results for the IC50 (at BRD4-BD12; in assay [3]; in the assay with MV-4-11) were ≤ 1 µM, < 10 µM and ≤ 1 µM, respectively.

`Cc1noc(C)c1-c1cnc2cnn(CC3CCC(F)(F)CC3)c2c1` [Compound P-2079, 4-[1-[(4,4-difluorocyclohexyl)methyl]pyrazolo[4,3-b]pyridin-6-yl]-3,5-dimethyl-isoxazole]: the IC50 on BRD4-BD12 is ≤ 1 µM; in assay [3] it was < 10 µM; in the assay on MV-4-11 it was ≤ 1 µM.

Consider `Cc1sc2c(c1C)C(c1ccc(Cl)cc1)=N[C@@H](CC(=O)OC(C)(C)C)c1nnc(C)n1-2` [JQ1], for which, in assay [1], the “activity in variety of cancer cells” value is reported as “have shown activity”.

Turning to `Cc1noc(C)c1-c1cnc2c(-c3cnn(C)c3)nn(CC3CC(F)(F)C3)c2c1` [Compound P-2086, 4-[1-[(3,3-difluorocyclobutyl)methyl]-3-(1-methylpyrazol-4-yl)pyrazolo[4,3-b]pyridin-6-yl]-3,5-dimethyl-isoxazole], the figures for the IC50 (on BRD4-BD12; in assay [3]; in the assay on MV-4-11) were ≤ 1 µM, < 10 µM and ≤ 1 µM, respectively.

With `Cc1noc(C)c1-c1cnc2c(-c3cnn(CC(F)(F)F)c3)nn(CC3CCC(F)(F)CC3)c2c1` [Compound P-2083, 4-[1-[(4,4-difluorocyclohexyl)methyl]-3-[1-(2,2,2-trifluoroethyl)pyrazol-4-yl]pyrazolo[4,3-b]pyridin-6-yl]-3,5-dimethyl-isoxazole], the IC50 on BRD4-BD12 is ≤ 1 µM; in assay [3] it was < 10 µM; in the assay on MV-4-11, ≤ 1 µM.

These data come from patent US9856259B2, “Heterocyclic compounds and uses thereof” (Plexxikon Inc., priority 2014, dated 2018).
